Experimental data taken from doi:10.1101/2024.08.25.609621 (bioRxiv, 2024).
Read-outs that look alike come from different tables or passages of the source.

How the values were obtained:
[1] = molecular target: SARS-CoV-2 NSP3 macrodomain (Mac1), P43 crystal form (Severe acute respiratory syndrome coronavirus 2, UniProt P0DTD1); assay type: binding; settings: for Number of isomers bound: ligand modeling in Mac1 crystal soak; for Isomers modeled: stereoisomer(s) of ligand modeled in Mac1 crystal structure
[2] = molecular target: SARS-CoV-2 NSP3 macrodomain (Mac1) (Severe acute respiratory syndrome coronavirus 2, UniProt P0DTD1); assay: biochemical; assay type: binding; settings: for IC50 / Ki: dose-response
[3] = Single dose, concentration 200 μM, read-out: Average % competition
[4] = preliminary screen, compound at 200 μM, mean of 3-4 technical replicates, read-out: % competition in HTRF assay
[5] = Single dose, concentration 200 μM, read-out: SARS CoV-2 macrodomain HTRF assay: Average % competition
[6] = SARS CoV-2 macrodomain HTRF assay
[7] = SARS CoV-2 macrodomain HTRF assay, read-out: IC50
[8] = SARS CoV-2 macrodomain HTRF assay, read-out: Ki
[9] = read-out: SARS CoV-2 macrodomain HTRF assay: IC50
[10] = read-out: SARS CoV-2 macrodomain HTRF assay: Ki
[11] = from SARS CoV-2 macrodomain HTRF assay

OCC(Cc1nccs1)Nc1ncnc2[nH]ccc12 (stereo not shown) [AVI-3673]
PanDDA run, TFA/DMSO background map: 1-BDC ([1]; crystal soak 10 mM): 0.15 | PanDDA run, TFA/DMSO background map: Hit ([1]; crystal soak 10 mM): TRUE | Number of isomers bound [1]: 1 | inhibition at 200 µM [2, 3]: 38% | inhibition at 200 µM [2, 4]: 38%

Cc1ccccc1CC(CO)Nc1ncnc2[nH]ccc12 (stereo not shown) [AVI-3674]
PanDDA run, TFA/DMSO background map: 1-BDC ([1]; crystal soak 10 mM): 0.15 | PanDDA run, TFA/DMSO background map: Hit ([1]; crystal soak 10 mM): TRUE | Number of isomers bound [1]: 1 | inhibition at 200 µM [2, 3]: 32%

OCC(CN1CCCCC1)Nc1ncnc2[nH]ccc12 (stereo not shown) [AVI-3677]
PanDDA run, TFA/DMSO background map: 1-BDC ([1]; crystal soak 10 mM): 0.18 | PanDDA run, TFA/DMSO background map: Hit ([1]; crystal soak 10 mM): TRUE | Number of isomers bound [1]: 1 | inhibition at 200 µM [2, 3]: < 10% | inhibition at 200 µM [2, 4]: < 10%

OCC(Nc1ncnc2[nH]ccc12)C1CCOC1 (stereo not shown) [AVI-3679]
PanDDA run, TFA/DMSO background map: 1-BDC ([1]; crystal soak 10 mM): 0.11 | PanDDA run, TFA/DMSO background map: Hit ([1]; crystal soak 10 mM): TRUE | Number of isomers bound [1]: 1 | inhibition at 200 µM [2, 3]: 35% | inhibition at 200 µM [2, 4]: 35%

O=C(O)C(F)(F)F.OCC12CC(CN1c1ncnc3[nH]ccc13)C2 [AVI-3681]
PanDDA run, TFA/DMSO background map: 1-BDC ([1]; crystal soak 10 mM): 0.12 | PanDDA run, TFA/DMSO background map: Hit ([1]; crystal soak 10 mM): TRUE | Number of isomers bound [1]: 1 | Isomers modeled [1]: achiral | inhibition at 200 µM [2, 5]: 54% | inhibition at 200 µM [2, 4]: 54%

Cc1ccc(CC(CO)Nc2ncnc3[nH]ccc23)cc1 (stereo not shown) [AVI-3683]
Number of isomers bound [1]: 2 | Isomers modeled [1]: S,R | inhibition at 200 µM [2, 3]: 14% | inhibition at 200 µM [2, 4]: 14%

Cc1ccc(CC(CO)Nc2ncnc3[nH]ccc23)cc1C (stereo not shown) [AVI-3684]
Number of isomers bound [1]: 2 | Isomers modeled [1]: R,S | inhibition at 200 µM [2, 3]: < 10% | inhibition at 200 µM [2, 4]: < 10%

OCC1CCCN1c1ncnc2[nH]ccc12 (stereo not shown) [AVI-3685]
Number of isomers bound [1]: 1 | fold decrease in affinity compared to AVI-607 ([2]; HTRF): > 20 fold | inhibition at 200 µM [2, 5]: 47% | inhibition at 200 µM [2, 4]: 48%

OCC(Cc1ccc(I)cc1)Nc1ncnc2[nH]ccc12 (stereo not shown) [AVI-3686]
PanDDA run, TFA/DMSO background map: 1-BDC ([1]; crystal soak 10 mM): 0.19 | PanDDA run, TFA/DMSO background map: Hit ([1]; crystal soak 10 mM): TRUE | Number of isomers bound [1]: 2 | Isomers modeled [1]: S,R | inhibition at 200 µM [2, 3]: < 10% | inhibition at 200 µM [2, 4]: < 10%

O=C(O)C(F)(F)F.OCC1(Nc2ncnc3[nH]ccc23)CC1 [AVI-3688]
PanDDA run, TFA/DMSO background map: 1-BDC ([1]; crystal soak 10 mM): 0.17 | PanDDA run, TFA/DMSO background map: Hit ([1]; crystal soak 10 mM): TRUE | Number of isomers bound [1]: 1 | Isomers modeled [1]: achiral | inhibition at 200 µM [2, 3]: 72% | inhibition at 200 µM [2, 4]: 72%

OCC(CC1CCCCC1)Nc1ncnc2[nH]ccc12 (stereo not shown) [AVI-3690]
Number of isomers bound [1]: 1 | inhibition at 200 µM [2, 3]: 66% | inhibition at 200 µM [2, 4]: 68%

OCC(CC1CCCC1)Nc1ncnc2[nH]ccc12 (stereo not shown) [AVI-3691]
PanDDA run, TFA/DMSO background map: 1-BDC ([1]; crystal soak 10 mM): 0.1 | PanDDA run, TFA/DMSO background map: Hit ([1]; crystal soak 10 mM): TRUE | Number of isomers bound [1]: 1 | inhibition at 200 µM [2, 3]: 52% | inhibition at 200 µM [2, 4]: 53%

O=C(O)C(F)(F)F.OCC1(Nc2ncnc3[nH]ccc23)CCCC1 [AVI-3692]
PanDDA run, TFA/DMSO background map: 1-BDC ([1]; crystal soak 10 mM): 0.11 | PanDDA run, TFA/DMSO background map: Hit ([1]; crystal soak 10 mM): TRUE | Number of isomers bound [1]: 1 | Isomers modeled [1]: achiral | Ligand efficiency (binding enery per heavy atom) [2, 6]: 0.35 | IC50 [2, 7]: 49 µM | Ki [2, 8]: 46 µM

OCC(Nc1ncnc2[nH]ccc12)C1CCc2ccccc21 (stereo not shown) [AVI-3693]
Number of isomers bound [1]: 2 | Isomers modeled [1]: RR,SR | inhibition at 200 µM [2, 3]: 78% | inhibition at 200 µM [2, 4]: 78%

CCC(CC)(CO)Nc1ncnc2[nH]ccc12 [AVI-3695]
Number of isomers bound [1]: 1 | Isomers modeled [1]: achiral,achiral | Ligand efficiency (binding enery per heavy atom) [2, 6]: 0.36 | IC50 [2, 7]: 40 µM | Ki [2, 8]: 37 µM

OCC(Cc1ccccn1)Nc1ncnc2[nH]ccc12 (stereo not shown) [AVI-3696]
Number of isomers bound [1]: 2 | Isomers modeled [1]: R,S | inhibition at 200 µM [2, 3]: 34% | inhibition at 200 µM [2, 4]: 34%

CCC(C)(CO)Nc1ncnc2[nH]ccc12 (stereo not shown) [AVI-3697]
Number of isomers bound [1]: 1 | Ligand efficiency (binding enery per heavy atom) [2, 6]: 0.39 | IC50 [2, 7]: 36 µM | Ki [2, 8]: 34 µM

OCC(O)C1CCCN1c1ncnc2[nH]ccc12 (stereo not shown) [AVI-3701]
Number of isomers bound [1]: 1 | PanDDA run, TFA/DMSO background map: 1-BDC ([1]; soak concentration 10 mM): 0.16 | PanDDA run, TFA/DMSO background map: Hit ([1]; soak concentration 10 mM): TRUE | inhibition at 200 µM [2, 5]: 54% | inhibition at 200 µM [2, 4]: 54%

O=C(O)C(F)(F)F.OC[C@H]1CC2(CN1c1ncnc3[nH]ccc13)OCCO2 [AVI-3702]
Number of isomers bound [1]: 1 | PanDDA run, TFA/DMSO background map: 1-BDC ([1]; soak concentration 10 mM): 0.13 | PanDDA run, TFA/DMSO background map: Hit ([1]; soak concentration 10 mM): TRUE | inhibition at 200 µM [2, 5]: 17% | inhibition at 200 µM [2, 4]: 17%

OCC(Cc1cncs1)Nc1ncnc2[nH]ccc12 (stereo not shown) [AVI-3703]
Number of isomers bound [1]: 1 | PanDDA run, TFA/DMSO background map: 1-BDC ([1]; soak concentration 10 mM): 0.1 | PanDDA run, TFA/DMSO background map: Hit ([1]; soak concentration 10 mM): TRUE | inhibition at 200 µM [2, 3]: 28% | inhibition at 200 µM [2, 4]: 28%

CC1(C)C[C@@H](CO)N(c2ncnc3[nH]ccc23)C1.O=C(O)C(F)(F)F [AVI-3704]
Number of isomers bound [1]: 1 | IC50 [2, 9]: 29 µM | Ki [2, 10]: 27 µM | Ligand efficiency (binding enery per heavy atom) [2, 11]: 0.35

OCC(Cc1ccoc1)Nc1ncnc2[nH]ccc12 (stereo not shown) [AVI-3705]
Number of isomers bound [1]: 1 | PanDDA run, TFA/DMSO background map: 1-BDC ([1]; soak concentration 10 mM): 0.14 | PanDDA run, TFA/DMSO background map: Hit ([1]; soak concentration 10 mM): TRUE | inhibition at 200 µM [2, 3]: 64% | inhibition at 200 µM [2, 4]: 64%

OCC1CC2(CCOCC2)CN1c1ncnc2[nH]ccc12 (stereo not shown) [AVI-3707]
Number of isomers bound [1]: 1 | PanDDA run, TFA/DMSO background map: 1-BDC ([1]; soak concentration 10 mM): 0.15 | PanDDA run, TFA/DMSO background map: Hit ([1]; soak concentration 10 mM): TRUE | inhibition at 200 µM [2, 5]: 39% | inhibition at 200 µM [2, 4]: 39%

OCC1CC2(CCCC2)CN1c1ncnc2[nH]ccc12 (stereo not shown) [AVI-3708]
Number of isomers bound [1]: 1 | IC50 [2, 9]: 27 µM | Ki [2, 10]: 25 µM | Ligand efficiency (binding enery per heavy atom) [2, 11]: 0.32

OCC(COCc1ccccc1)Nc1ncnc2[nH]ccc12 (stereo not shown) [AVI-3709]
Number of isomers bound [1]: 2 | PanDDA run, TFA/DMSO background map: 1-BDC ([1]; soak concentration 10 mM): 0.16 | PanDDA run, TFA/DMSO background map: Hit ([1]; soak concentration 10 mM): TRUE | Isomers modeled [1]: S,R | inhibition at 200 µM [2, 3]: 29% | inhibition at 200 µM [2, 4]: 29%

O=C(O)C(F)(F)F.OC[C@@H]1CC2(CC2)CN1c1ncnc2[nH]ccc12 [AVI-3710]
Number of isomers bound [1]: 1 | PanDDA run, TFA/DMSO background map: 1-BDC ([1]; soak concentration 10 mM): 0.23 | PanDDA run, TFA/DMSO background map: Hit ([1]; soak concentration 10 mM): TRUE | Isomers modeled [1]: S,S | inhibition at 200 µM [2, 5]: 57% | inhibition at 200 µM [2, 4]: 57%

OCC(Cc1cccs1)Nc1ncnc2[nH]ccc12 (stereo not shown) [AVI-3711]
Number of isomers bound [1]: 1 | PanDDA run, TFA/DMSO background map: 1-BDC ([1]; soak concentration 10 mM): 0.16 | PanDDA run, TFA/DMSO background map: Hit ([1]; soak concentration 10 mM): TRUE | inhibition at 200 µM [2, 3]: 63% | inhibition at 200 µM [2, 4]: 63%

OCC1C2CCC(C2)N1c1ncnc2[nH]ccc12 (stereo not shown) [AVI-3713]
Number of isomers bound [1]: 1 | Isomers modeled [1]: SSR | IC50 [2, 9]: 27 µM | Ki [2, 10]: 25 µM | Ligand efficiency (binding enery per heavy atom) [2, 11]: 0.35

OCC(Nc1ncnc2[nH]ccc12)c1ccccc1 (stereo not shown) [AVI-3715]
Number of isomers bound [1]: 1 | PanDDA run, TFA/DMSO background map: 1-BDC ([1]; soak concentration 10 mM): 0.09 | PanDDA run, TFA/DMSO background map: Hit ([1]; soak concentration 10 mM): TRUE | inhibition at 200 µM [2, 3]: 54% | inhibition at 200 µM [2, 4]: 54%

OCC1COCCN1c1ncnc2[nH]ccc12 (stereo not shown) [AVI-3717]
Number of isomers bound [1]: 2 | Isomers modeled [1]: R,S | inhibition at 200 µM [2, 5]: 62% | inhibition at 200 µM [2, 4]: 62%

CC(C)(C)C1CCC(CO)N(c2ncnc3[nH]ccc23)C1 (stereo not shown) [AVI-3719]
Number of isomers bound [1]: 1 | inhibition at 200 µM [2, 5]: 36% | inhibition at 200 µM [2, 4]: 36%
